Data taken from patent publication US4990537A, “Anti influenza agent” (priority 1988, dated 1991).

Legend:
[1] = test system: human influenza virus (A/Fukuoka/80); assay: animal or person; format: in vivo, human influenza virus; embryonated chicken eggs; conditions: for IC50: unidentified influenza virus, 48 h, read-out: Concentration for 50% inhibition against proliferation of virus; for activities for inhibiting proliferation of human influenza virus compared with amantadine: in words, versus amantadine
[2] = test system: human influenza virus A/WSN; assay: Inhibitory activities against plaque formation of human influenza virus (plaque assay in MDCK cells); format: cell-based; conditions: for inhibitory activities against growth of human influenza virus compared with amantadine: in words, versus amantadine
[3] = test system: MDCK cells (dog kidney cells); conditions: for Cytotoxicity (printed in the inhibition rate column): 100.0 μg/ml, plaque assay, three days; for range of safety compared with amantadine: in words, versus amantadine
[4] = in vitro; conditions: dog, mdck
[5] = unidentified influenza virus, WSN, MDCK, 72 h, read-out: Inhibition rate (%) of plaque formation

Q: For `NC12CC3CC(CC(C3)C1)C2` [Amantadine, amantadine, reference compound], which IC50 [1] is on record?
A: The IC50 was > 100 µg/mL.

Q: What about the inhibition at 30 µg/mL [2, 5] of the same molecule?
A: The inhibition at 30 µg/mL was 60.1%.

Q: What about the cytotoxicity [3] of the same molecule?
A: The cytotoxicity was “cytotoxicity slightly but distinctly”.

Q: What about the “Cytotoxicity (printed in the inhibition rate column)” value [3] of the same molecule?
A: The value was “Cytotoxicity”.

Q: With `CS(=O)(=O)O.CS(=O)(=O)O.N=C(N)Nc1ccc(C(=O)Oc2ccc3cc(C(=N)N)ccc3c2)cc1` [Compound A, 6-Amidino-2-naphthyl p-guanidinobenzoate dimethanesulfonate] as the molecule, how does the “activities for inhibiting proliferation of human influenza virus compared with amantadine” value [1] read?
A: Its value is “stronger activities for inhibiting proliferation of human influenza virus”.

Q: And the IC50 [1]?
A: Its IC50 is 0.125 µg/mL.

Q: What about the MNTC at 72 h [4] of the same molecule?
A: Its MNTC at 72 h is ≥ 50 µg/mL.

Q: What about the “inhibitory activities against growth of human influenza virus compared with amantadine” value [2] of the same molecule?
A: The value was “even stronger inhibitory activities against growth of human influenza virus than amantadine”.

Q: What about the inhibition at 1 µg/mL [2, 5] of the same molecule?
A: Its inhibition at 1 µg/mL is 19.9%.

Q: And the inhibition at 2.5 µg/mL [2, 5]?
A: The inhibition at 2.5 µg/mL was 27.2%.

Q: And the inhibition at 5 µg/mL [2, 5]?
A: The inhibition at 5 µg/mL was 52.1%.

Q: And the inhibition at 10 µg/mL [2, 5]?
A: Its inhibition at 10 µg/mL is 100%.

Q: What about the inhibition at 25 µg/mL [2, 5] of the same molecule?
A: Its inhibition at 25 µg/mL is 100%.

Q: And the inhibition at 50 µg/mL [2, 5]?
A: Its inhibition at 50 µg/mL is 100%.

Q: What about the “Cytotoxicity (printed in the inhibition rate column)” value [3] of the same molecule?
A: Its value is “Cytotoxicity”.

Q: And the “range of safety compared with amantadine” value [3]?
A: The value was “wide range of safety as compared with amantadine”.

Q: Which “activities for inhibiting proliferation of human influenza virus compared with amantadine” value [1] does the source give for `CN(C)C(=O)COC(=O)Cc1ccc(OC(=O)c2ccc(NC(=N)N)cc2)cc1.CS(=O)(=O)O` [Compound B, N,N-dimethylcarbamoylmethyl p-(p-guanidinobenzoyloxy)phenylacetate methanesulfonate] here?
A: Its value is “stronger activities for inhibiting proliferation of human influenza virus”.

Q: And the IC50 [1]?
A: The IC50 was 1.25 µg/mL.

Q: What about the MNTC at 72 h [4] of the same molecule?
A: Its MNTC at 72 h is ≥ 1000 µg/mL.

Q: What about the “inhibitory activities against growth of human influenza virus compared with amantadine” value [2] of the same molecule?
A: The value was “even stronger inhibitory activities against growth of human influenza virus than amantadine”.

Q: What about the inhibition at 10 µg/mL [2, 5] of the same molecule?
A: Its inhibition at 10 µg/mL is 29.5%.

Q: And the inhibition at 20 µg/mL [2, 5]?
A: The inhibition at 20 µg/mL was 51.5%.

Q: What about the inhibition at 40 µg/mL [2, 5] of the same molecule?
A: The inhibition at 40 µg/mL was 80.5%.

Q: And the inhibition at 50 µg/mL [2, 5]?
A: Its inhibition at 50 µg/mL is 88%.

Q: And the inhibition at 100 µg/mL [2, 5]?
A: The inhibition at 100 µg/mL was 100%.

Q: What about the “range of safety compared with amantadine” value [3] of the same molecule?
A: Its value is “wide range of safety as compared with amantadine”.
